In US20230143604A1, “QW DOSING OF GIP RECEPTOR AGONIST PEPTIDE COMPOUNDS AND USES THEREOF” (TAKEDA PHARMACEUTICAL COMPANY LIMITED, priority 2020, published 2023):
Where two headings read alike, the source gives them in different places. Starred links: 1 amine or outer side, 2 acyl side, 3 side chain; linkers in the order of their positions; H or OH if unused. Non-standard residues stand in square brackets, D forms with d. Residues, ends and D or L forms follow the SMILES beside them. Groups on a side chain read outwards from the residue. *: point of attachment. C18 diacid = O=C(O)CCCCCCCCCCCCCCCCC(=O)*; C17 diacid = O=C(O)CCCCCCCCCCCCCCCC(=O)*; γGlu = O=C(O)[C@H](CCC(=O)[*:2])N[*:1]; NMeY = CN[C@@H](Cc1ccc(O)cc1)C(=O)O; AEEA = NCCOCCOCC(=O)O; Aib = CC(C)(N)C(=O)O

Legend:
[1] = Serum half-life and percentage remaining at 48 hours; format: in vitro ADME; details: human plasma, 500 nM peptide, 37° C.; for half-life at 500 nM: read-out: Serum t1/2 (converted)
Method: Human plasma (mixed gender: sodium heparin is used as anti-coagulant; pre-adjusted to pH 7.4—NB alternative species may be used) is spiked with each test peptide (500 nM) and incubated·cn=3) at 37° C. for 48 hours in a 5% CO2 environment. Aliquots are taken at 0. 1, 2, 4, 7, 24 and […] and pH adjusted to pH 3 with 20% formic acid prior to analysis. Appropriate positive control compounds will be incubated in parallel, in addition to a no plasma control, sampled at 0 and 8 hours. All samples will be treated with ice-cold acetonitrile/methanol (4:1 (v/v)) containing internal standard prior to centrifugation at 2000 g and 4° C. for 10 minutes and subjected to LC-MS/MS analysis.
The samples are analyzed by LC-MS/MS using a 6500 (or equivalent) triple quadrupole mass spectrometer (AB Sciex) coupled to an appropriate Liquid Chromatography (LC) system. Protein binding and stability values are determined via peak area ratios using multiple reaction monitoring (MRM) parameters following compound optimisation. Multiple reaction monitoring (MRM) is a highly sensitive method of targeted mass spectrometry (MS) that can be used to selectively detect and quantify peptides based on the screening of specified precursor peptide-to-fragment ion transitions.

[2] = Solubility in phosphate buffer pH 7.4
In short: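 3 mg of peptide treated with 100 μL portions of 200 mM phosphate buffer pH 7.4, sonicating/vortexing up to 1 min, with further buffer added until fully dissolved. Solubility then quantified by HPLC.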

[3] = Pharmacokinetics in dog after IV and SC dosing; details: in vivo
Method: Pharmacokinetic (PK) were conducted in dog in order to determine the half-life after IV and SC dosing. The peptide was dissolved in 10% DMSO/0.09% Polysorbate/PBS pH 7.4 to a concentration of 3 nmol/mL and the animal were dose with a volume of 1 mL/kg SC or IV. Blood sample were collected at 0, 0.033, 0.083, 0.25, 0.5, 1, 2, 4, 6, 8, 12, 24, 48, 72, 96, 120, 168, 336 hours for IV dosing and 0.25, 0.5, 1, 2, 4, 6, 8, 12, 24, 48, 72, 96, 120, 168, 336 for SC dosing, EDTA-K2 was used as anticoagulant. The plasma concentration of the peptide was measured using LCMS. Allometric scaling of lipidated peptide pharmacokinetics including T1/2 and MRT is known in the art for rodent to dog and mini pig and to humans. […] See for example, Discovery and Development of Liraglutide and Semaglutide. Knudsen, L. B.; Lau, J. Frontiers in Endocrinology, 2019, vol 10, Article 155.

[4] = Human plasma protein binding (PPB); format: in vitro ADME
In short: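 Peptides spiked at 1000 nmol/L into pooled human K2-EDTA plasma adjusted to pH 7.4, incubated 30 min at 37 °C, then ultracentrifuged at ~450,000 g, 4 °C for 3 h. Fu derived from LC-MS/MS (MRM) peak area ratios, supernatant versus plasma.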

[5] = Dog plasma protein binding (PPB); format: in vitro ADME; details: pH 7.4; fraction unbound; dog serum; read-out: Dog PPB (FUplasma)
In short: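 Dog serum replaced human serum, with the protocol and analysis otherwise the same as for human plasma protein binding. Values are reported as fraction unbound (Fu,plasma) expressed as a percentage.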

[6] = system: C57BL/6J mice; test: Oral glucose tolerance test (OGTT); format: in vivo; details: 3 nmol/kg s.c., 24 hours before glucose loading
In short: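 Peptide or vehicle given s.c. at 0.1, 0.3, 3 or 10 nmol/kg (peptide-dependent), 24 h before oral 50% dextrose at 5 ml/kg unless stated otherwise. Blood glucose read at 0, 15, 30 and 60 min. % inhibition = (1−(AUC cpd−AUC naïve)/(AUC veh−AUC naïve))×100.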

[7] = system: Dogs; format: in vivo; details: 10 nmol/kg s.c.
Method: Dogs are transferred to an observation cage (700 mm W×700 mm D×700 mm H [W×D×H], without food) on 1 day before each apomorphine challenge. The dogs are weighed by using an electronic balance then test peptide compounds and vehicle will be administrated via the subcutaneous route. Apomorphine is challenged at 8 hr after the administration and emetic events will be monitored for 1 h by video recording. The second apomorphine challenge will be 72 hr after the administration and emetic events will be recorded by the same protocol. Emesis symptoms are continuously recorded using a video camera and stored on a blue ray disc. Observation of symptoms include retching (a rhythmic contraction of the abdomen) and vomiting (vomiting behavior, including the elimination of vomitus or similar behavior). Besides, the combination of retching and vomiting is defined as emesis, and the number of episodes, latency (time elapsed from morphine administration until the onset of the first emesis symptom), duration (time elapsed between the onset of the first and final episodes of emesis), and frequency (number of animals showing emesis/number of experimental animals) of each of these symptoms is calculated. The latency in cases where emesis symptoms are not noted is taken as the maximum value (1 h for apomorphine challenge) at the end of observation. When the duration of the emesis symptoms is less than 1 min, the duration is recorded, for convenience, as 1 min.

[8] = pH 7.4, aqueous buffer, pH 7.4 Phosphate Buffer - Solubility, 200 mM Phosphate buffer pH 7.4
[9] = pH 7.4, solubility in phosphate buffer at pH 7.4, 200 mM phosphate buffer pH 7.4

Row | Compound | half-life at 500 nM ([1]; both sexes, pH 7.4) | remaining at 48 h, 500 nM ([1]; both sexes, plasma (sodium heparin), pH 7.4, 48 hr) | solubility [2, 8] | solubility [2, 9] | half-life ([3]; IV 3 nmol/kg, read-out: IV T½ (converted)) | MRT last ([3]; SC 3 nmol/kg, read-out: SC MRT 0-last) | % Remaining at 48 hr ([1]; 48 hr) | fraction unbound at 30 min, 1000 nmol/L ([4]; both sexes, pH 7.4, fraction unbound, human plasma, 1000 nmol/L peptide, ultracentrifugation, read-out: Human PPB (FUplasma)) | free unbound peptide in human plasma (in words) ([4]; judged for once per week (QW) dosing) | fraction unbound at 30 min, 1000 nmol/L [5] | solubility ([2]; pH 7.4) | solubility ([2]; pH 7.4, aqueous buffer) | Oral Glucose Tolerance Test Percent decrease in blood glucose AUC (%) over 60 mins [6] | % inhibition of emetic events at doses (nmol/kg) shown in dog apomorphine model ([7]; after 8 hrs (upper)) | % inhibition of emetic events at doses (nmol/kg) shown in dog apomorphine model ([7]; after 72 hours (lower))
1 | CC[C@H](C)[C@H](NC(=O)[C@H](CO)NC(=O)[C@H](Cc1ccc(O)cc1)NC(=O)[C@H](CC(=O)O)NC(=O)[C@H](CO)NC(=O)[C@@H](NC(=O)[C@H](Cc1ccccc1)NC(=O)[C@@H](NC(=O)CNC(=O)[C@H](CCC(=O)O)NC(=O)C(C)(C)NC(=O)[C@H](Cc1ccc(O)cc1)NC)[C@@H](C)O)[C@@H](C)CC)C(=O)N[C@@H](C)C(=O)N[C@@H](CC(C)C)C(=O)N[C@@H](CC(=O)O)C(=O)N[C@@H](CCCNC(=N)N)C(=O)N[C@@H](CCCCNC(=O)COCCOCCNC(=O)COCCOCCNC(=O)CC[C@H](NC(=O)CCCCCCCCCCCCCCCCC(=O)O)C(=O)O)C(=O)N[C@@H](Cc1c[nH]cn1)C(=O)N[C@@H](CCC(N)=O)C(=O)N[C@@H](CCC(N)=O)C(=O)N[C@@H](CC(N)=O)C(=O)N[C@@H](Cc1ccccc1)C(=O)N[C@H](C(=O)N[C@@H](CC(N)=O)C(=O)N[C@@H](Cc1c[nH]c2ccccc12)C(=O)N[C@@H](CC(C)C)C(=O)N[C@@H](CC(C)C)C(=O)N[C@@H](C)C(=O)N[C@@H](CCC(N)=O)C(=O)N[C@@H](CCCNC(=N)N)C(=O)N1CCC[C@H]1C(=O)N[C@@H](CO)C(=O)N[C@@H](CO)C(=O)NCC(=O)N[C@@H](C)C(=O)N1CCC[C@H]1C(=O)N1CCC[C@H]1C(=O)N1CCC[C@H]1C(=O)N[C@@H](CO)C(N)=O)C(C)C [Compound 4] (H-[NMeY][Aib]EGTFISDYSIALDRK([AEEA-AEEA-γGlu-C18 diacid])HQQNFVNWLLAQRPSSGAPPPS-NH2) | 17.1 h | 15% | ≥ 30 mg/mL | ≥ 15 mg/mL |  |  |  |  |  |  |  |  |  |  | 
2 | CC[C@H](C)[C@H](NC(=O)[C@H](Cc1ccccc1)NC(=O)[C@@H](NC(=O)CNC(=O)[C@H](CCC(=O)O)NC(=O)C(C)(C)NC(=O)[C@H](Cc1ccc(O)cc1)NC)[C@@H](C)O)C(=O)N[C@@H](CO)C(=O)N[C@@H](CC(=O)O)C(=O)N[C@@H](Cc1ccc(O)cc1)C(=O)N[C@@H](CO)C(=O)N[C@H](C(=O)NC(C)(C)C(=O)N[C@@H](CC(C)C)C(=O)N[C@@H](CC(=O)O)C(=O)N[C@@H](CCCNC(=N)N)C(=O)N[C@@H](CCCCNC(=O)COCCOCCNC(=O)COCCOCCNC(=O)CC[C@H](NC(=O)CC[C@H](NC(=O)CCCCCCCCCCCCCCCC(=O)O)C(=O)O)C(=O)O)C(=O)N[C@@H](C)C(=O)N[C@@H](CCC(N)=O)C(=O)NC(C)(C)C(=O)N[C@@H](CC(N)=O)C(=O)N[C@@H](Cc1ccccc1)C(=O)N[C@H](C(=O)N[C@@H](CC(N)=O)C(=O)N[C@@H](Cc1c[nH]c2ccccc12)C(=O)N[C@@H](CC(C)C)C(=O)N[C@@H](CC(C)C)C(=O)N[C@@H](C)C(=O)N[C@@H](CCC(N)=O)C(=O)N[C@@H](CCCNC(=N)N)C(=O)N1CCC[C@H]1C(=O)N[C@@H](CO)C(=O)N[C@@H](CO)C(=O)NCC(=O)N[C@@H](C)C(=O)N1CCC[C@H]1C(=O)N1CCC[C@H]1C(=O)N1CCC[C@H]1C(=O)N[C@@H](CO)C(N)=O)C(C)C)[C@@H](C)CC [Compound 15] (H-[NMeY][Aib]EGTFISDYSI[Aib]LDRK([AEEA-AEEA-γGlu-γGlu-C17 diacid])AQ[Aib]NFVNWLLAQRPSSGAPPPS-NH2) | > 48 h |  | ≥ 30 mg/mL | ≥ 15 mg/mL | 57 h | 64 h | 131.1% | 0.0017 | optimum free unbound peptide | 0.0021 |  |  |  |  | 
3 | CC[C@H](C)[C@H](NC(=O)[C@H](CO)NC(=O)[C@H](Cc1ccc(O)cc1)NC(=O)[C@H](CC(=O)O)NC(=O)[C@H](CO)NC(=O)[C@@H](NC(=O)[C@H](Cc1ccccc1)NC(=O)[C@@H](NC(=O)CNC(=O)[C@H](CCC(=O)O)NC(=O)C(C)(C)NC(=O)[C@@H](N)Cc1ccc(O)cc1)[C@@H](C)O)[C@@H](C)CC)C(=O)N[C@@H](C)C(=O)N[C@@H](CCCCNC(=O)CNC(=O)CNC(=O)CNC(=O)CNC(=O)CNC(=O)CCCCCCCCCCCCCCCCC(=O)O)C(=O)N[C@@H](CC(=O)O)C(=O)N[C@@H](CCCNC(=N)N)C(=O)NC(C)(C)C(=O)N[C@@H](C)C(=O)N[C@@H](CCC(N)=O)C(=O)NC(C)(C)C(=O)N[C@@H](CC(=O)O)C(=O)N[C@@H](Cc1ccccc1)C(=O)N[C@H](C(=O)N[C@@H](CC(N)=O)C(=O)N[C@@H](Cc1c[nH]c2ccccc12)C(=O)N[C@@H](CC(C)C)C(=O)N[C@@H](CC(C)C)C(=O)N[C@@H](C)C(=O)N[C@@H](CCC(N)=O)C(=O)N[C@@H](CO)C(=O)N1CCC[C@H]1C(=O)NCC(=O)O)C(C)C [Compound 128] |  |  |  |  |  |  |  |  |  |  | ≥ 15 mg/mL | ≥ 30 mg/mL | 57% (3 nmol/kg) | 56% (10 nmol/kg) | 60% (10 nmol/kg)
